Earlier results, collected in patent publication US9155702B2, “Composition and microsphere for controlled-release of exendin, and method preparing the same” (PEPTRON CO., LTD, priority 2007, dated 2015).

Tested on: diabetic ob/ob mice
Details: intraperitoneal injections once per day

Substance: exendin-4
- effect of lowering the blood-sugar level: prolonged effect of lowering the blood-sugar level
